Results reported in patent US20100069248A1, “HERBICIDE COMBINATION COMPRISING DIMETHOXYTRIAZINYL SUBSTITUTED DIFLUOROMETHANESULFONYLANILIDES” (BAYER CROPSCIENCE AG, priority 2008, published 2010).

Columns and labels:
Type in all cases: in vivo
Stellaria media (STEME) = assay: Post-emergence action against weeds, greenhouse pots, visual scoring; settings: 10 DAT
Method: (§1) Seeds or rhizome pieces of mono- and dicotyledonous harmful and useful plants were placed in peat pots (diameter 4 cm) filled with sandy loam and then covered with soil. The pots were kept in a greenhouse under optimum conditions. In addition, harmful plants encountered in paddy rice cultivation were cultivated in pots with a water level 2 cm above the soil surface.
(§2) About three weeks after the start of the cultivation, the test plants were treated at the 2- to 3-leaf stage. The herbicides, formulated as powder or liquid concentrates, were, either alone or in the combinations according to the invention, sprayed in various dosages on to the green parts of the plants using an application rate of 600 l of water/ha (converted). For further cultivation of the plants, the pots were then again kept under optimum conditions in a greenhouse.
(§3) The visual scoring of the herbicidal effects was carried out in intervals up to 21 days after the treatment. Scoring was carried out in percent in comparison to the untreated control plants. 0%=no herbicidal activity, 100%=complete herbicidal activity=complete kill.
(§4) The percentages from the treatments with the herbicides alone (=individual application) and with the combinations according to the invention (=mixtures) were employed to calculate interactions using the method of Colby. When the observed efficacies of the mixtures exceed the formal sum of the values of the tests with individual applications, they also exceed the expected value according to Colby, which is calculated using the formula below (cf. S. R. Colby; in Weeds 15 (1967) pp. 20 to 22):
(§5) • A, B=activity of components A and B in percent at a dosage of a and b g of ai/ha (=gramm of active substance per hectare), respectively. • E=expected value in % at a dosage of a+b g of ai/ha.

[1] = test system: Cyperus esculentus (CYPES); assay: as above; settings: 21 DAT
Method: as §1, §2, §3, §4, §5

[2] = test system: Alopecurus myosuroides (ALOMY); assay: as above
Method: as §1, §2, §3, §4, §5

Setaria viridis (SETVI) = assay: as above; settings: 21 DAT
Method: as §1, §2, §3, §4, §5

[3] = test system: Lolium multiflorum (LOLMU); assay: as above
Method: as §1, §2, §3, §4, §5

Zea mays (ZEAMX) = assay: Post-emergence action, greenhouse pots, visual scoring; settings: component B 60 g of ai/ha
Method: as §1, §2, §3, §4, §5

Avena fatua (AVEFA) = assay: Post-emergence action against weeds, greenhouse pots, visual scoring; settings: 21 DAT, component B 60 g of ai/ha
Method: as §1, §2, §3, §4, §5

[4] = test system: Fallopia (ex Polygonum) convolvulus (POLCO); assay: as above; settings: 21 DAT
Method: as §1, §2, §3, §4, §5

[5] = test system: Matricaria inodora (MATIN); assay: as above; settings: 21 DAT
Method: as §1, §2, §3, §4, §5

[6] = test system: Amaranthus retroflexus (AMARE); assay: as above; settings: 21 DAT, component B 60 g of ai/ha
Method: as §1, §2, §3, §4, §5

Viola tricolor (VIOTR) = assay: as above
Method: as §1, §2, §3, §4, §5

[7] = test system: Triticum aestivum (TRZAS); assay: Post-emergence action, greenhouse pots, visual scoring; settings: 10 DAT, component B 180 g of ai/ha
Method: as §1, §2, §3, §4, §5

[8] = 21 DAT, component B 60 g of ai/ha
[9] = 21 DAT, component B 180 g of ai/ha
[10] = 10 DAT, component B 60 g of ai/ha
[11] = 10 DAT, component B 180 g of ai/ha

COc1nc(OC)nc(C(=O)c2cccc(F)c2N(C)S(=O)(=O)C(F)F)n1 [A-1]
% activity found (Stellaria media (STEME); component A 4 g of ai/ha): 70%
% activity found (Stellaria media (STEME); component A 12 g of ai/ha): 70%

COc1c(Cl)ccc(Cl)c1C(=O)O [B1-1, 3,6-dichloro-2-methoxybenzoic acid]
% activity found ([1]; component B 60 g of ai/ha): 0%
% activity found ([1]; component B 180 g of ai/ha): 0%
% activity found [2, 8]: 0%
% activity found [2, 9]: 0%
% activity found (Setaria viridis (SETVI); component B 60 g of ai/ha): 0%
% activity found (Setaria viridis (SETVI); component B 180 g of ai/ha): 20%
% activity found [3, 10]: 0%
% activity found [3, 11]: 10%
% activity found [3, 8]: 0%
% activity found (Zea mays (ZEAMX); 10 DAT): 0%

O=C(O)c1c(Cl)ccc2cc(Cl)cnc12 [B3-1, 3,7-dichloro-8-quinolinecarboxylic acid]
% activity found (Avena fatua (AVEFA)): 0%
% activity found (Stellaria media (STEME); component B 60 g of ai/ha): 10%
% activity found ([1]; component B 60 g of ai/ha): 0%
% activity found ([1]; component B 180 g of ai/ha): 0%
% activity found [2, 10]: 0%
% activity found [2, 11]: 0%
% activity found [2, 8]: 0%
% activity found [2, 9]: 0%
% activity found ([4]; component B 60 g of ai/ha): 0%
% activity found ([4]; component B 180 g of ai/ha): 0%
% activity found ([5]; component B 60 g of ai/ha): 0%
% activity found ([5]; component B 180 g of ai/ha): 0%
% activity found [6]: 40%
% activity found (Viola tricolor (VIOTR); [11]): 20%
% activity found (Viola tricolor (VIOTR); [8]): 40%
% activity found [3, 10]: 0%
% activity found [3, 11]: 0%
% activity found [7]: 0%
% activity found (Zea mays (ZEAMX); 10 DAT): 0%
% activity found (Zea mays (ZEAMX); 21 DAT): 0%
